“Also recorded” adds a separate entry of the source.
Tests used:
S. cerevisiae = assay: Two-color cDNA microarray expression profiling of mutant or compound-treated yeast cultures (300-experiment compendium) with hierarchical clustering; type: cell-based; settings: for mutant in the affected pathway whose profile the profile caused by the inhibitory compound resembles / DNA-damage/S-phase arrest inducible RNR2, RNR3 and RNR4 transcripts: FIG. 9B; for clustering of treatment profile with profiles from cell wall related mutants gas1Δ, spf1Δ, and amp1Δ: FIG. 11A
Experimental: Experimental (mutant or chemically treated) cultures were grown, harvested and processed in parallel with corresponding wild-type or control cultures. A complete list of experimental conditions is provided, below, in Table 2.
Several colonies of similar size were picked from freshly-streaked YAPD agar plates into liquid Synthetic Complete medium (SC) with 2% glucose, grown overnight at 30° C. to mid-log phase, diluted to 0.4-1.0×10^6 cells/mL, and grown an addition 5-7 hours until reaching 0.4-1.0[…], at which point they were pelleted by centrifugation from 2 minutes at room temperature and frozen in liquid nitrogen. The final optical densities of experimental and control cultures were matched as closely as possible. For experiments involving treatments with chemical compounds (including doxycycline), compounds were added at the beginning of the 5-7 hour final groth phase, with equal amounts of solvent or doxycyline added to control cultures as appropriate. Total RNA was prepared by phenol:chloroform extraction followed by ethanol precipitation as described previously (see, e.g., Marton et al., 1998, Nat. Med. 4:1293-1301) except that the step vortexing with glass beads was replaced with a 10 minute incubation at 65° C. followed by 1 minute of vortexing. Poly-A+ RNA purification, cDNA labeling, microarray production, and microarray hybridization and washing were also done as previously described (e.g., in Marton et al., supra) with measurements taken in fluor-reversed pairs. Arrays were scanned, images were quantitated and physical artifacts such as dust and salt residue were edited as described previously (see, e.g., Marton et aL, supra). Resulting data files were evaluated by a series of quality-control criteria relating, first, to the image itself and, second, to known biological artifacts. For purposes of illustrating the impact of biases, experiments flagged as containing biological artifacts were noted by were not excluded from subsequent data analysis steps.
Clustering analysis of the perturbation response profiles was done as described, below, in Section 5.2.4. Specifically, the analysis comprised two steps. First, profiles and transcripts were selected from a data matrix and, second, experiments and responsive genes were grouped by agglomerative hierarchical clustering (see Hartigan, 1975, Clustering Algorithms, John Wiley & Sons, New York) where the similarity measure is the error-weighted correlation coefficient provided in Equation 11 below. Genes and experiments (i.e., columns and rows, respectively, of the data matrix) were then re-ordered according to the resulting clustering similarity trees. A statistical significance (i.e., a P-value) was also calculated for each bifurcation in the resulting cluster tree using the methods for determining statistical significance of cluster groups which are also described, below, in Section 5.2.4.
Using a two-color cDNA microarray hybridization assay (see, Schena et al., 1995, Science 270:467-470), three hundred expression profiles were generated in S. cerevisiae in which transcript levels of a mutant or compound-treated culture were compared to that of a wild-type or mock-treated culture. 276 deletion mutants, 11 tetracycline-regulatable alleles of essential genes (Gari et al., 1997, Yeast 13:837-848) and 13 well-characterized compounds were profile. Sixty-nine of the 276 deletions were of uncharacterized open reading frames (ORFs). To allow direct comparison of the behavior of all genes in response to all mutations and treatments, experiments were performed under a single condition: cells were grown at 30° C. in liquid synthetic complete SC) medium plus 2% glucose to mid-log phase, with the final optical densities of the experimental and control cultures closely matched (see Section 6.1 above). […]

wild type yeast cells = settings: levels that give maximal repression of promoter activity (10 micrograms/nil); cited from earlier work
[1] = biological target: T1, Erg2p, the sterol C-8 isomerase (Saccharomyces cerevisiae, UniProt P32352); assay: Sterol profiles by gas chromatography of the nonsaponifiable fraction; type: cell-based, yeast; settings: dyclonine-treated cells, FIG. 11F
T1 construct: endogenous in cells; host or cells: S. cerevisiae, Saccharomyces Genome Deletion Consortium strain background
T1 sequence (P32352 whole entry): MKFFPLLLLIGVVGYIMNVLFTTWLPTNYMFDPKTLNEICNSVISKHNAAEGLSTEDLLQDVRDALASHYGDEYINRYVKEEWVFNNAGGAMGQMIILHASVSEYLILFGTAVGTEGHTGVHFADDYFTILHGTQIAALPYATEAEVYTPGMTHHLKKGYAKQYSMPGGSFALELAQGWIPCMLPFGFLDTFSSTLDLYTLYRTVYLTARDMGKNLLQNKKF
Experimental: Sterols were identified using pure standards and on the basis of relative retention times. Nonsaponifiables were isolated from yeast as previously described (Molzahn and Woods, 1972, J Gen. Microbiol. 72:339-348). Gas chromatography (GC) analyses of the nonsaponifiable fraction were analyzed on a HP5890 series II GC equipped with the HP chemstation software. The capillary column (DB5) was 15 m×0.25 mm i.d., 0.2 μm film thickness and was programmed from 195 fC to 300 fC (195 fC for 3 min., 5.5 fC/min. to 300 fC then held for 10 min.). The linear velocity was 30 cm/s using nitrogen and the carrier gas and all injections were run in the splitless mode.

yeast Erg2 enzyme = yeast Erg2 enzyme (Saccharomyces cerevisiae, UniProt P32352); settings: cited from earlier work
Chain of yeast Erg2 enzyme (P32352 whole entry): as above

Molecule: O=CC[C@@H](O)[C@H](O)[C@H](O)CO [2-deoxy-D-glucose]
- mutant in the affected pathway whose profile the profile caused by the inhibitory compound resembles (S. cerevisiae): gas1
- clustering of treatment profile with profiles from cell wall related mutants gas1Δ, spf1Δ, and amp1Δ (S. cerevisiae): form a discrete cluster together with

Molecule: C/C=C1\NC(=O)[C@H]2CSSCC/C=C/[C@H](CC(=O)N[C@H](C(C)C)C(=O)N2)OC(=O)[C@H](C(C)C)NC1=O [FR901,228]
- mutant in the affected pathway whose profile the profile caused by the inhibitory compound resembles (S. cerevisiae): rpd3

Molecule: COS(C)(=O)=O [MMS]
- DNA-damage/S-phase arrest inducible RNR2, RNR3 and RNR4 transcripts (S. cerevisiae): induced

Molecule: C[C@@H]1C[C@@H]([C@H](O)CC2CC(=O)NC(=O)C2)C(=O)[C@@H](C)C1 [cycloheximide]
- mutant in the affected pathway whose profile the profile caused by the inhibitory compound resembles (S. cerevisiae): yef3
- clustering of treatment profile with ribosome subunit deletion profiles (S. cerevisiae; all regulations greater than 1.5-fold masked, small regulations used as basis of clustering): this profile cluster gains additional translation-related experiments

Molecule: C[C@H]1c2cccc(O)c2C(=O)C2=C(O)[C@]3(O)C(=O)C(C(N)=O)=C(O)[C@@H](N(C)C)[C@@H]3[C@@H](O)[C@@H]21 [doxycycline]
- effect on the growth rate on wild type yeast cells (wild type yeast cells): no significant effect

Molecule: CCCCOc1ccc(C(=O)CCN2CCCCC2)cc1 [dyclonine]
- expression profile of drug-treated yeast compared with the compendium profiles (S. cerevisiae; six hour treatment with 0.063% dyclonine (FIG. 11E)): correlates most closely with the response profile obtained from a cell line in which the erg2p gene has been “knocked out.”; also recorded: most closely resembled profiles resulting from perturbation of the ergosterol pathway
- sterol accumulating in treated cells and enzyme inferred to be inhibited (GC analysis) [1]: buildup of fecosterol, indicating inhibition of Erg2p
- sterol content of treated cells (GC analysis) [1]: abnormal

Molecule: N[C@H]1C(O)O[C@H](CO)[C@@H](O)[C@@H]1O (stereo partly shown) [glucosamine]
- mutant in the affected pathway whose profile the profile caused by the inhibitory compound resembles (S. cerevisiae): gas1
- clustering of treatment profile with profiles from cell wall related mutants gas1Δ, spf1Δ, and amp1Δ (S. cerevisiae): form a discrete cluster together with

Molecule: O=C(CCCN1CCC(O)(c2ccc(Cl)cc2)CC1)c1ccc(F)cc1 [haloperidol]
- binding and inhibition of the yeast Erg2 enzyme (yeast Erg2 enzyme): binds and inhibits

Molecule: NC(=O)NO [hydroxyurea]
- DNA-damage/S-phase arrest inducible RNR2, RNR3 and RNR4 transcripts (S. cerevisiae): induced
- mutant in the affected pathway whose profile the profile caused by the inhibitory compound resembles (S. cerevisiae): rnr1

Molecule: CCC(C)n1ncn(-c2ccc(N3CCN(c4ccc(OCC5COC(Cn6cncn6)(c6ccc(Cl)cc6Cl)O5)cc4)CC3)cc2)c1=O (stereo not shown) [itraconzaole]
- mutant in the affected pathway whose profile the profile caused by the inhibitory compound resembles (S. cerevisiae): erg/11

Molecule: CC[C@H](C)C(=O)O[C@H]1C[C@@H](C)C=C2C=C[C@H](C)[C@H](CC[C@@H]3C[C@@H](O)CC(=O)O3)[C@H]21 [lovastatin]
- correlation of transcript profile of compound treatment with profile of reduced expression of the target gene (S. cerevisiae; FIG. 9E): correlates highly with the profile produced by reducing expression of HMG2

Molecule: tunicamycin
- mutant in the affected pathway whose profile the profile caused by the inhibitory compound resembles (S. cerevisiae): gas1
- clustering of treatment profile with profiles from cell wall related mutants gas1Δ, spf1Δ, and amp1Δ (S. cerevisiae): form a discrete cluster together with
